Test results published in patent publication EP0234113A1, “2,3-Dihydro-1H-phenalene-2-amino compounds as anti-psychotic drugs” (THE UPJOHN COMPANY, priority 1985, dated 1987).
Several values for one entry are separate records, joined by “and”; a condition that tells them apart may be missing. Equal entries are not always repeated. Entries after “also recorded” stand apart in the source; their conditions may differ. Where two headings read alike, the source gives them in different places.

Key:
6-OH DA Turning = assay: Antagonism of amphetamine: 6-OH DA turning; type: in vivo; conditions: i.a. = inactive
Excerpt: (§1) Table 3. […] A. Behavioral effects in the rat. B. Behavioral effects in the monkey. C. Doses required to antagonize the indicated behavioral effects of amphetamine. D. Doses required to antagonize the indicated behavioral effects of apomorphine.

Catalepsy = assay: Catalepsy; conditions: rat
Excerpt: as §1

dopamine neurons [1] = assay: Depression of dopamine neuron firing rates by the drug alone; type: in vivo, rats; conditions: for ED50 / Emax: Rattus norvegicus, iv; for Emax: read-out: MAXIMUM EFFECT (per cent decrease)
Method: (§2) Table 2. Dopamine neuron firing rates were recorded according to published procedures and drugs were injected intravenously in chloral hydrate anesthetized rats. A. Ability of drugs to reverse the depression in firing rates of dopamine neurons by 1 to 2 mg/kg amphetamine. The maximum effect is the maximum amount of the amphetamine effect that was reversed, even when doses were increased beyond dose causing maximum effect. An effect greater than 100% indicates excitation of the neuron beyond its' control rate whereas an effect less than 100% indicates partial agonist effects. B. Depression of dopamine neurons by full agonist apomorphine and partial agonists TDHL, (-)PPP and U-64,273A. Maximum effect is maximum depression that could be realized even after increasing doses beyong the dose causing maximum effect. For both A and B, the ED50 is the dose causing 50% of the respective antagonistic (A) or agonist (B) effect.

Dopamine (3H-spiperone) = assay: Receptor Binding Assay with 3H-spiperone (Dopamine Binding Assay), rat brain homogenate; conditions: 1μM; rat brain homogenates; - indicates ligand was displaced
Method: The Receptor Binding Assay test for antipsychotic acitvity, was conducted as follows:
A rat brain homogenate was prepared (1) by homogenizing a whole rat brain minus the cerebellum in 10 ml of 0.05M THAM-HC1, pH 7.4, using a Polytron at a setting of 7 for 30 sec. and centrifuging at 15,000xg for 10 min. The supernatant was discarded, the pellet resuspended in 10 ml of buffer using the Polytron for 10 sec., and the centrifugation repeated. The pellet was resuspended and diluted to 100 times the original tissue weight with buffer. Then 100 ml of the homogenate was diluted to 400 ml with buffer.
The test drug was weighed out in a scintillation vial in a 1-5 mg ammount. They were dissolved by adding 0.5 ml of N-N-dimethylformamide of (DMF) and then 0.05 ml of 1M acetic acid, and vortexed to solubilize the drug. Then 10 ml of deionized and filtered water was added to the required volume. All compounds were tested at a single concentration of 1 uM.
Samples were prepared for incubation using an ^3H-spiperone (antipsychotic).
Incubation was conducted at 30°C for 30 min. on a shaking water bath. Every 30 sec., 24 tubes were filled with 1 ml of homogenate and put into the bath (this is done every 3 min. until all tubes are in the bath). Upon completion of the incubation procedure, the samples are filtered and rinsed.
The punched filters are dropped into vials, which are in turn filled with ACS liquid scintillation fluid and capped and counted in a liquid scintillation counter. Counting data is recorded and analyzed.
Results are expressed as percent decrease from control.

Locomotor activity [2] = assay: Antagonism of apomorphine locomotor activity in reserpinized mouse; type: in vivo
Excerpt: as §1

LSD = LSD ligand binding, rat brain homogenates; conditions: 1μM, - indicates ligand was displaced
plasma prolactin = assay: Plasma prolactin; type: in vivo; conditions: Sprague-Dawley rat
alpha-1 = assay: Alpha-1 ligand binding, rat brain homogenates; conditions: 1μM, i.a. = inactive
[3] = system: dopamine metabolites HVA, DOPAC, and 3MT; assay: Dopamine metabolites in rat brain; type: in vivo; conditions: percentage of control; 3 mg/kg of chlorpromazine, 30 mg/kg clozapine or U-64,273A; Sprague-Dawley rat
alpha-2 = assay: Alpha-2 ligand binding, rat brain homogenates; conditions: 1μM, - indicates ligand was displaced
muscarinic = assay: Muscarinic ligand binding, rat brain homogenates; conditions: 1μM, - indicates ligand was displaced
dopamine neurons [4] = assay: Reversal of amphetamine depression of dopamine neuron firing rates; type: in vivo, rats; conditions: for Emax / ED50: Rattus norvegicus, Neuron, iv; for Emax: read-out: MAXIMUM EFFECT (per cent reversal)
Method: as §2, with “An effect greater than 100% indicates excitation of the neuron beyond its' control rate whereas an effect less than 100% indicates partial agonist effects.” left out

Emesis = assay: Antagonism of apomorphine emesis; type: in vivo
Excerpt: as §1

Conditioned Avoidance = assay: Conditioned avoidance; type: in vivo; conditions: rat; (p) = partial activity, i.a. = inactive
Excerpt: as §1

[5] = system: lethal dose of d-amphetamine; assay: Antagonism of amphetamine toxicity; type: in vivo
Excerpt: as §1

Discrimination = assay: Antagonism of apomorphine discrimination; type: in vivo; conditions: (p) = partial activity
Excerpt: as §1

Stereotypy = assay: Antagonism of apomorphine stereotypy; type: in vivo; conditions: i.a. = inactive, listed as U-64273A
Excerpt: as §1

[6] = system: Apomorphone-Induced Case Climbing; assay: Apomorphine antagonism (Apomorphine gnawing test; apomorphine-induced cage climbing); type: in vivo, Mouse; conditions: mouse
Excerpt: (§3) The Effect on Body Temperature (Hypothermia) Test and the Antagonism of Apomorphone-Induced Case Climbing (ACC), (Apomorphine Gnawing Test) are described on page 1398 of the publication, Journal of Medicinal Chemistry, Vol. 22, No. 11, pp. 1390-1398, in an article entitled "6-Aryl-4H-s-triazolo[4,3-a][1,4]benzodiazepines....Action" by J. B. Hester, Jr., et al.
as §1

Serotonin metabolites = Serotonin metabolites in rat brain; type: in vivo, Sprague-Dawley rat; conditions: percentage of control; 1 mg/kg haloperidol, 10 mg/kg of clozapine, 30 mg/kg U-64,273A
locomotor activity [7] = assay: Antagonism of apomorphine locomotor activity in rat; type: in vivo; conditions: i.a. = inactive
Excerpt: as §1

body temperature = assay: Hypothermia Test (effect on body temperature); type: in vivo, CF-1 male mice; conditions: either test: hypothermic or apomorphine antagonism
Method: as §3
For the tests here, the Hypothermia Test procedure was run as follows:
A group of four CF-1 male mice (18-22 g each) was injected intraperitoneally with the test compound prepared in 0.25 percent w/v methylcellulose in water solution. After 45 min, abdominal temperature of each mouse was measured using a thermister probe. A control group of four mice was treated with vehicle only and the temperature of the control group was taken in a similar manner. A compound was considered to have a significant effect on body temperature if the mean temperature in the test compound treated group deviated more than 3.5°C from the mean temperature of the parallel control group. Stimulants tend to elevate temperatures; depressants tend to lower body temperature.

locomotor stimulation = assay: Locomotor stimulation in reserpinized mice, drug given by itself; type: in vivo
Excerpt: Consistant with its having a minor amount of agonist activity, the overall behavioral effects of U-64,273A conform to that of a weak DA antagonist (Table 3). […] When given by itself, U-64,273A affected locomotor activities in rodents in a way resembling both DA auto-receptor and postsynaptic receptor agonists.

locomotor activity [8] = assay: Antagonism of amphetamine: locomotor activity; type: in vivo; conditions: i.a. = inactive
Excerpt: as §1

[9] = 3 mg/kg of chlorpromazine, 30 mg/kg clozapine or U-64,273A
[10] = dopamine neuron firing, Table 2

`CN1CCc2cccc3c2[C@H]1Cc1ccc(O)c(O)c1-3` [Apomorphine, apomorphine] was tested. Which “6-OH DA Turning, rat, dose required to antagonize amphetamine” value (6-OH DA Turning) did it give?
The value was “i.a”.

And the “Catalepsy, active dose” value (Catalepsy; in vivo)?
The value was “i.a”.

What about the ED50 (dopamine neurons [1]; Neuron, dose causing 50% of the agonist effect, intravenously, anesthetized rats, read-out: ED50) of the same molecule?
The ED50 was 0.01 mg/kg.

And the Emax (dopamine neurons [1]; B. depress DA neuron firing rates, intravenously, chloral hydrate anesthetized rats)?
Its Emax is 100%.

`CN(C)CCCN1c2ccccc2Sc2ccc(Cl)cc21` [CHLORPROMAZINE, chlorpromazine, reference compound] was tested. Which “spiperone, percentage of ligand displaced” value (Dopamine (3H-spiperone)) did it give?
Its value is -81.6%.

What about the “Locomotor activity, reserpinized mouse, 3 mg/kg (antag. of apomorphine)” value (“Locomotor activity, reserpinized mouse” below) (Locomotor activity [2]) of the same molecule?
The value was 85% (CPZ).

What about the “LSD, percentage of ligand displaced” value (LSD) of the same molecule?
Its value is -76.8%.

And the “Plasma Prolactin” value (plasma prolactin; [9])?
The value was 1057%.

And the “alpha-1, percentage of ligand displaced” value (alpha-1)?
The value was -98.6%.

What about the 3MT [3] of the same molecule?
The 3MT was 365%.

What about the DOPAC [3] of the same molecule?
The DOPAC was 375%.

What about the HVA [3] of the same molecule?
The HVA was 225%.

What about the “alpha-2, percentage of ligand displaced” value (alpha-2) of the same molecule?
Its value is -83.4%.

What about the “muscarinic, percentage of ligand displaced” value (muscarinic) of the same molecule?
Its value is -96.4%.

`CN1CCN(C2=Nc3cc(Cl)ccc3Nc3ccccc32)CC1` [Clozapine, clozapine] was tested. Which Emax (dopamine neurons [4]; A. antagonize amphetamine depressions, intravenously, chloral hydrate anesthetized rats, 1 to 2 mg/kg amphetamine, >100% = excitation beyond control rate) did it give?
The Emax was 105%.

And the ED50 (dopamine neurons [4]; dose causing 50% of the antagonistic effect, intravenously, anesthetized rats, read-out: ED50)?
The ED50 was 2 mg/kg.

What about the “Locomotor activity, reserpinized mouse” value (Locomotor activity [2]) of the same molecule?
Its value is 52%.

And the “Catalepsy, active dose” value (Catalepsy; i.a. = inactive)?
The value was “i.a”.

What about the “Plasma Prolactin” value (plasma prolactin; [9]) of the same molecule?
Its value is 42%.

And the 3MT [3]?
Its 3MT is 104%.

And the DOPAC [3]?
Its DOPAC is 110%.

What about the HVA [3] of the same molecule?
Its HVA is 118%.

`CNC1Cc2cccc3cccc(c23)C1` [U-64,273A, 2,3-dihydro-N-mono-methyl-lH-phenalen-2-amine] was tested. Which “6-OH DA Turning, rat, dose required to antagonize amphetamine” value (6-OH DA Turning) did it give?
The value was “antagonized d-amphetamine”.

And the “Dog Emesis, dose required to antagonize apomorphine” value (Emesis)?
The value was “antagonized apomorphine”.

What about the “Conditioned Avoidance, active dose” value (Conditioned Avoidance) of the same molecule?
Its value is “suppressed conditioned avoidance behavior of rats with a limited efficacy”.

What about the ED50 (dopamine neurons [4]) of the same molecule?
Its ED50 is 0.005 mg/kg.

And the Emax (dopamine neurons [4])?
The Emax was 69%.

And the antagonist share (dopamine neurons [4]; [10])?
The antagonist share was 70%.

And the “reversal of amphetamine's depression of DA neuronal firing (in words)” value (dopamine neurons [4]; intravenous, anesthetized rats)?
Its value is “potent in reversing the effect of d-amphetamine on nigral DA neuronal firing; also recorded: not quite complete”.

What about the “Mouse Toxicity, dose required to antagonize amphetamine” value [5] of the same molecule?
Its value is “did not protect mice”.

And the “spiperone, percentage of ligand displaced” value (Dopamine (3H-spiperone))?
Its value is “relatively weak and -46.2%”.

And the “Locomotor activity, reserpinized mouse” value (Locomotor activity [2])?
The value was “antagonized apomorphine”.

And the “Locomotor activity, reserpinized mouse” value (Locomotor activity [2]; listed as U-64273A)?
Its value is 47% antag.

And the “Monkey Discrimination, dose required to antagonize apomorphine” value (Discrimination)?
The value was “antagonized apomorphine”.

What about the “LSD, percentage of ligand displaced” value (LSD) of the same molecule?
The value was -67.3%.

What about the “Catalepsy, active dose” value (Catalepsy; i.a. = inactive) of the same molecule?
Its value is “i.a”.

What about the “Rat Stereotypy, dose required to antagonize apomorphine” value (Stereotypy) of the same molecule?
Its value is “i.a”.

And the “Plasma Prolactin” value (plasma prolactin; cell marks this value (10), probably 10 mg/kg)?
The value was 1%.

And the “Cage Climbing Mouse, dose required to antagonize apomorphine” value [6]?
Its value is “antagonized apomorphine”.

And the 5HIAA (Serotonin metabolites)?
The 5HIAA was 76%.

What about the 5HT (Serotonin metabolites) of the same molecule?
Its 5HT is 128%.

And the 5HTP (Serotonin metabolites)?
The 5HTP was 37%.

What about the “Locomotor activity, rat, dose required to antagonize apomorphine” value (locomotor activity [7]) of the same molecule?
Its value is “i.a”.

And the “alpha-1, percentage of ligand displaced” value (alpha-1)?
The value was “i.a”.

And the 3MT [3]?
Its 3MT is 50%.

And the DOPAC [3]?
The DOPAC was 80%.

And the “alpha-2, percentage of ligand displaced” value (alpha-2)?
Its value is -37.5%.

And the “active in either the hypothermic or the apomorphine antogonism test” value (body temperature)?
Its value is “active”.

And the “locomotor stimulation in reserpinized mice” value (locomotor stimulation)?
The value was “no locomotor stimulation”.

And the “muscarinic, percentage of ligand displaced” value (muscarinic)?
The value was -11.7%.

And the ED50 (dopamine neurons [1]; Neuron)?
The ED50 was 0.07 mg/kg.

And the Emax (dopamine neurons [1]; Neuron)?
Its Emax is 30%.

What about the agonist share (dopamine neurons [1]; [10]) of the same molecule?
Its agonist share is 30%.

What about the “inhibition of DA neuronal firing when given alone (in words)” value (dopamine neurons [1]; rat, in vivo) of the same molecule?
Its value is “weakly inhibit”.

What about the “RAT locomotor activity, dose required to antagonize amphetamine” value (locomotor activity [8]) of the same molecule?
The value was “i.a”.
